We go through 1 compound from patent US11110195B2, “Esculentin 1a derivatives and uses thereof” (University of Houston System, priority 2013, dated 2021).

For one series, the system named is Pseudomonas aeruginosa. How it is done:
(§1) To determine the minimum inhibitory concentration (MIC) of Esc-1a(1-21)NH2 that causes total inhibition of microbial growth against Pseudomonas aeruginosa and Staphylococcal strains, the following experiment (using P. aeruginosa ATCC 19660 as an example) was performed. MIC was determined using the 96 well micro-plate dilution assay. The test was performed in triplicate wells and Esc-1a(1-21)NH2 was serially diluted to give concentrations of 0.125 μM to 64 μM.
(§2) Day 1: Picked a colony from a P. aeruginosa ATCC19660 streak plate, inoculated in to nutrient broth and incubated overnight at 37° C. with shaking (250 rpm) Day 2 Steps: Removed 100 μl of the bacterial suspension and inoculated into 50 ml of fresh broth. Incubated for 2.5 hours with vigorous shaking (250 rpm) at 37° C. to achieve mid-log phase growth. Centrifuged the 50 ml culture at 3100 g for 10 minutes; discarded supernatant and resuspended pellet in 2 ml Muller-Hinton broth (MHB). Adjusted the optical density (OD) of the bacterial culture to 0.2 at 620 nm (corresponds to ˜10^7 CFU/ml) and diluted to 2×10^6 CFU/ml using MHB media. Thawed an aliquot of the peptide on ice. Pipetted 90 μl of MHB into wells A1, B1 and C1 and 50 μl of MHB media into A2-C2 through A12-C12. Added 10 μl of Esc-1a(1-21)NH2 into wells A1, B1 and C1 and performed serial twofold dilutions of peptide in a volume of 50 μl from column 1 to column 10 (i.e. transferred 50 μl from A1, B1 and C1 to A2, B2 and C2 and so on till A10-C10). […] Pipetted 50 μl of the diluted P. aeruginosa ATCC 19660 in to each well using a multichannel pipette (final concentration was 1×10^5 bacteria in 100 μl volume). Wrapped the plate using parafilm to prevent evaporation and incubated in a shaker incubator (150 rpm) at 37° C. for 18-24 h.
(§3) Day 3 Steps: Read the plate using the spectrophotometer at 590 nm after examining the plates visually for turbidity. Generated spot plates to check for bacterial growth by plating out the contents of the first 3 wells showing no visible growth of bacteria onto MHA plates. Plated dilutions in duplicate and incubated the plates at 37° C. for 18 hr.
(§4) Day 4: Counted the number of colonies on the agar plates and plotted the data.

The test system of another series is Staphylococcus aureus. Particulars: Staphylococcus aureus n. 6 ME, clinical ocular isolate. How it is done: as §1, §2, §3, §4
In series [1] the test system is Staphylococcus epidermidis. Particulars: Staphylococcus epidermidis n. 21 (326) ME, clinical ocular isolate. How it is done: as §1, §2, §3, §4
For another series, the system named is Staphylococcus hominis. Particulars: Staphylococcus hominis n. 1 ME, clinical ocular isolate. On the procedure:
as §1, §2, §3, §4

The nature of another series: in vitro. Particulars: human, human telomerase immortalized corneal epithelial cells. How it is done:
(§5) Human corneal epithelial cells were incubated with varying concentrations of Esc-1a(1-21)NH2 for 24 hrs then cytotoxicity determined by MTT assay. Data are the mean of 3 independent experiments.
(§6) To determine the toxicity of Esc-1a(1-21)NH2 to human telomerase immortalized corneal epithelial cells, the following experiment was performed. The MTT (3-(4,5-Dimethylthiazole-2-yl)-2,5-diphenyltetrazolium bromide) assay measures the activity of enzymes that reduce the tetrazolium blue dye to a formazan salt. Mitochondrial reductase enzymes will reduce MTT to formazan, which can be visualized by colorimetric reaction the absorbance of which can be quantified.
(§7) MTT assay was performed on human telomerase immortalized corneal epithelial cells treated with different concentrations of the peptide for 24 hrs. The test was performed in triplicate or quadruplicate wells with concentrations of the peptide of up to 100 μM using the following protocol. On day 1, plated the telomerase immortalized epithelial cells at 10,000 cells/well in a 96 well plate. Incubated the plate at 37° C. for […] to allow the cells to attach to the plate and spread. On day 2, incubated the cells in serum free media for at least 6 hrs prior to peptide treatment. On day 3, stimulated the cells with 100, 50, 25, 10, 5, 1, 0.5 and 0.1 μM Esc-1a(1-21)NH2 in quadruplicate for 24 hrs. On day 4, added 50 μl of 0.02% Benzalkonium chloride into 4 wells as a positive control for 15 minutes. Added 50 μl of serum free media into all the other wells (total volume 100 μl). Added 10 μl of MTT stock solution into each of the well. Incubated at 37° C. for 3 hours. At the end of 3 hours purple crystals were visible under the microscope. Added 100 μl of stop solution into each well using a multichannel pipette. Pipetted up and down to dissolve all the crystals. Gently popped the bubbles using a 10 μl tip. Read plate using plate reader at 590 nm abs and 635 nm reference. Subtracted reference OD value (635) from 590 OD value and plotted graph.

Series [2] has as its system human telomerase immortalized corneal epithelial cells. Put plainly: in vitro. Particulars: 24 hrs. On the procedure:
as §5, §6, §7

In series [3] the test system is Pseudomonas aeruginosa ATCC 19660. Put plainly: Viable bacterial count in infected corneas. Particulars: for difference in viable bacterial counts vs PBS control: pre-treated or treated groups; for viable bacterial count in cornea: pre-treated. In kind it is in vivo, C57BL/6 mice. From the text:
Corneas were harvested 1, 3 and 5 days after infection and the number of surviving bacteria determined. […] P1=post infection; Pre-trt=pretreatment with Esc-1a(1-21)NH2. *Indicates significant difference, p<0.05, among PBS control and peptide treated groups.
To determine a clinical score, neutrophil infiltration by myeloperoxidase assay (MPO assay) and viable bacterial cell counts in infected and control corneas of C57BL/6 mice with Pseudomonas aeruginosa ATCC 19660 keratitis following pre-treatment and post-infection treatment with Esc-1a(1-21)NH2 up to 5 days post-infection (PI) the following experiment was performed. In these experiments pre-treatment refers to a group of animals where treatment was initiated 24 hrs before infection then continued after infection.
To quantitate viable bacteria, a 100 μl aliquot from the corneal homogenates was serially diluted 1:10 in sterile PBS. Duplicate aliquots (20 μl) of each dilution, including the original homogenate, were plated onto nutrient agar. Plates were incubated for 14-16 h at 37° C.
The harvested corneas were homogenized, plated on growth media and the bacterial colonies recovered counted 14-18 hours post plating. Data plotted (FIG. 7) show the viable bacterial counts obtained from an average of 3 independent experiments.

Values after ≈ are worked out from the molar mass of the structure shown. Like-named read-outs stand apart in the source and are kept apart here. Residues, ends and D or L forms follow the SMILES beside them.

For orientation: MIC means the least concentration at which growth counts as inhibited. A lower MIC goes with inhibition by little substance. As a reminder, the viability is a per cent measure of how many cells are alive, often set against a control. A low value points to a greater loss of cells. Turning to `CC[C@H](C)[C@H](NC(=O)CN)C(=O)N[C@@H](Cc1ccccc1)C(=O)N[C@@H](CO)C(=O)N[C@@H](CCCCN)C(=O)N[C@@H](CC(C)C)C(=O)N[C@@H](C)C(=O)NCC(=O)N[C@@H](CCCCN)C(=O)N[C@@H](CCCCN)C(=O)N[C@H](C(=O)N[C@@H](CCCCN)C(=O)N[C@@H](CC(N)=O)C(=O)N[C@@H](CC(C)C)C(=O)N[C@@H](CC(C)C)C(=O)N[C@H](C(=O)N[C@@H](CO)C(=O)NCC(=O)N[C@@H](CC(C)C)C(=O)N[C@@H](CCCCN)C(=O)NCC(N)=O)[C@@H](C)CC)[C@@H](C)CC` [Esc-1a(1-21)NH2] (H-GIFSKLAGKKIKNLLISGLKG-NH2; N-terminus assumed), the MIC values range against Pseudomonas aeruginosa (P. aeruginosa clinical isolates) was in the range of 2 to 8 µM. Besides, the minimum inhibitory concentration (MIC) is 4 µM (≈ 8.74 µg/mL) in the series with Pseudomonas aeruginosa (Pseudomonas aeruginosa 1 Rm, clinical ocular isolate); 16 µM (≈ 35 µg/mL) in the series with Pseudomonas aeruginosa (Pseudomonas aeruginosa ATCC 19660, reference strain); 2 µM (≈ 4.37 µg/mL) in the series on Pseudomonas aeruginosa (Pseudomonas aeruginosa R1, clinical ocular isolate); 8 µM (≈ 17.5 µg/mL) against Pseudomonas aeruginosa (Pseudomonas aeruginosa n. 2 ME, clinical ocular isolate); 8 µM (≈ 17.5 µg/mL) against Pseudomonas aeruginosa (Pseudomonas aeruginosa n. 3, clinical ocular isolate); 64 µM (≈ 140 µg/mL) against Staphylococcus aureus. Moreover, the minimal inhibitory concentration (MIC) in series [1] is 8 µM (≈ 17.5 µg/mL); against Staphylococcus hominis it was 1 µM (≈ 2.18 µg/mL). The compound further had a viability at 24 h, 50 µM in “in vitro” of 75.7%. This compound also displayed a viability at 24 h, 100 µM in “in vitro” of 17.4%. Also, in series [2] (MTT (FIG. 4)), the concentrations significantly cytotoxic result is “above 50 μM”. Besides, the “toxicity to the cells” value in series [2] (concentration below 50 μM) is “not toxic”. The “difference in viable bacterial counts vs PBS control” value is given as 4 log10 in series [3] (day 5 PI); 2-3 log10 CFU in series [3] (days 1 and 3 PI). Further, the results for the “viable bacterial count in cornea” value in series [3] (day 1 PI), in series [3] (day 3 PI) and in series [3] (day 5 PI) were 3.35 log10 CFU, 3.7 log10 CFU and 3.47 log10 CFU, respectively.
